Measurements as given in patent publication US7973075B2, “Kainate receptor-selective epimeric analogs of dysiherbaine” (priority 2007, dated 2011).
Values joined by “and” are separate entries in the source; they are usually repeats but may differ in a detail not shown here. Equal values may be shown once. Read-outs that look alike come from different tables or passages of the source.

Assays:
GluR6a = target: T1, GluR6a (Rattus norvegicus, UniProt P42260); experiment: Radioligand binding ([3H]kainate displacement), HEK-293-T/17 membranes, Example 2; settings: for Ki: [3H]kainate displacement, Cheng-Prusoff
T1 construct: expressed in transfected cells; host or cells: HEK-293-T/17
Protocol: (§1) Radioligand binding. Membrane preparations from HEK-293-T/17 cells were prepared and used in radioligand binding assays as described previously (Sanders et al., 2005). Unlabeled analogs were used to displace [3H]kainate (10-20 nM, PerkinElmer Life and Analytical Sciences, Boston, Mass.) or [3H]AMPA (20 nM, PerkinElmer Life and Analytical Sciences, Boston, Mass.) from KARs and AMPARs, respectively. Nonspecific binding was determined in the presence of 1 mM glutamate. After 1 hour incubation at 4° C., samples were harvested by rapid filtration onto Whatman GF/C membranes. Upon addition of scintillation fluid, membranes were incubated for 1 hour at room temperature. A Beckman LS5000TD scintillation counter was used for quantification (Beckman Coulter Inc., Fullerton, Calif.). Data were plotted and fit with a one-site competition curve with fixed minima and maxima using Prism 4 (GraphPad Software, Inc). Ki's were calculated with the Cheng-Prusoff equation using the determined IC5o values and the radioligand Kd. Data were plotted and fit with a one-site competition curve with fixed minima (0) and maxima (100) (Prism4, GraphPad Software, Inc.). Correlation analysis was performed with these binding data and the seizure activity of each analog, represented as ED50 values.
(§2) The pharmacological profiles of the Group I analogs, 8-deoxy-neoDH and 9-deoxyneoDH, were analyzed initially in radioligand binding experiments with expressed recombinant AMPA and kainate receptor subunits. Displacement of [3H]kainate from cell membranes with a range of analog concentrations yielded IC50 values that were then used to calculate Ki values for each analog/receptor combination. Both Group 1 analogs retained high affinity only for GluR5-2a KAR subunits (FIG. 8A). […] Weak binding to other KAR and AMPAR subunits was observed, with all Ki values estimated at >10 μM (n=3-5; Table 3, FIG. 8A).
(§3) For comparison, the Ki values for neoDH and MSVIII-19 are included in the table (Sanders et al., 2005). Removal of the C9 hydroxyl eliminated binding to all receptor subunits (Ki values estimated at >100 μM), with the exception of GluR5-2a KARs.

mice = settings: Shoji et al., 2006, cited from earlier work; for ED50 seizure activity: i.c.v. injection, mice; for convulsant behavior, from the literature: i.c.v., Sasaki et al., 1999, Sakai et al., 2001a
GluR5-2a = target: T2, GluR5-2a (Rattus norvegicus, UniProt P22756, DEL402-416); experiment: Radioligand binding ([3H]kainate displacement), HEK-293-T/17 membranes, Example 2; settings: Cheng-Prusoff
T2 construct: expressed in transfected cells; host or cells: HEK-293-T/17
Protocol: as §1, §2, §3

GluR7a = target: T3, GluR7a (Rattus norvegicus, UniProt P42264); experiment: as above
T3 construct: expressed in transfected cells; host or cells: HEK-293-T/17
Protocol: as §1, §2, §3

KA2 = target: T4, KA2 (Rattus norvegicus, UniProt Q63273); experiment: as above; settings: Cheng-Prusoff
T4 construct: expressed in transfected cells; host or cells: HEK-293-T/17
T4 sequence (Q63273 15-979): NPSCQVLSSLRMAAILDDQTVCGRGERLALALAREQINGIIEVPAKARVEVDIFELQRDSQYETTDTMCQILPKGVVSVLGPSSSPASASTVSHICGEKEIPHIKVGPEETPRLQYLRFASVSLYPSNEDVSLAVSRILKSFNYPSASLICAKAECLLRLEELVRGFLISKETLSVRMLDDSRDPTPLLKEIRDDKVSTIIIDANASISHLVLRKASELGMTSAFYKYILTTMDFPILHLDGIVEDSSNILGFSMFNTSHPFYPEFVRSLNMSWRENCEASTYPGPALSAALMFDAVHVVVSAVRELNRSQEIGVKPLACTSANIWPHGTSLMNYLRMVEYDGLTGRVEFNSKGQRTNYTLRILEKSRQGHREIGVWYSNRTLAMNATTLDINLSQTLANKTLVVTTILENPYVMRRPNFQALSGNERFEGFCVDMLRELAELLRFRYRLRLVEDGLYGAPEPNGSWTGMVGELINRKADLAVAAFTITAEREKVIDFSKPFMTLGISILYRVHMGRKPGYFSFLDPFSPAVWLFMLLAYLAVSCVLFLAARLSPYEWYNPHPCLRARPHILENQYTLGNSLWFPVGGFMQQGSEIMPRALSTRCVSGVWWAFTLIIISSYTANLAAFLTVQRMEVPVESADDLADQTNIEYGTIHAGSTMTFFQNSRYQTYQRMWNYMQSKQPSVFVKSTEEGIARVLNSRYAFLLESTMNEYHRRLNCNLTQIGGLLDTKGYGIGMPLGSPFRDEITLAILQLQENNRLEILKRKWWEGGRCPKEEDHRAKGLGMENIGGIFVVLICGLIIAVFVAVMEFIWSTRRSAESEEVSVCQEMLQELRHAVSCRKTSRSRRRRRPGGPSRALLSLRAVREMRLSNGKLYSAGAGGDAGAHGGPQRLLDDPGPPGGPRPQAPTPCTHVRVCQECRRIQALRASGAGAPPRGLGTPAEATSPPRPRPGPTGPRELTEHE
Protocol: as §1, §2, §3

GluR1(i) = target: T5, GluR1(i) (Rattus norvegicus, UniProt P19490); experiment: Radioligand binding ([3H]AMPA displacement), HEK-293-T/17 membranes, Example 2; settings: Cheng-Prusoff
T5 construct: expressed in transfected cells; host or cells: HEK-293-T/17
Protocol: as §1, §2, §3

GluR2(i) = target: T6, GluR2(i) (Rattus norvegicus, UniProt P19491); experiment: as above; settings: Cheng-Prusoff
T6 construct: expressed in transfected cells; host or cells: HEK-293-T/17
Protocol: as §1, §2, §3

[1] = [3H]kainate displacement, Cheng-Prusoff, read-out: Ki GluR7a
[2] = [3H]kainate displacement, read-out: Ki KA2

T6 sequence (P19491 22-883 isoform P19491-2 limits assumed): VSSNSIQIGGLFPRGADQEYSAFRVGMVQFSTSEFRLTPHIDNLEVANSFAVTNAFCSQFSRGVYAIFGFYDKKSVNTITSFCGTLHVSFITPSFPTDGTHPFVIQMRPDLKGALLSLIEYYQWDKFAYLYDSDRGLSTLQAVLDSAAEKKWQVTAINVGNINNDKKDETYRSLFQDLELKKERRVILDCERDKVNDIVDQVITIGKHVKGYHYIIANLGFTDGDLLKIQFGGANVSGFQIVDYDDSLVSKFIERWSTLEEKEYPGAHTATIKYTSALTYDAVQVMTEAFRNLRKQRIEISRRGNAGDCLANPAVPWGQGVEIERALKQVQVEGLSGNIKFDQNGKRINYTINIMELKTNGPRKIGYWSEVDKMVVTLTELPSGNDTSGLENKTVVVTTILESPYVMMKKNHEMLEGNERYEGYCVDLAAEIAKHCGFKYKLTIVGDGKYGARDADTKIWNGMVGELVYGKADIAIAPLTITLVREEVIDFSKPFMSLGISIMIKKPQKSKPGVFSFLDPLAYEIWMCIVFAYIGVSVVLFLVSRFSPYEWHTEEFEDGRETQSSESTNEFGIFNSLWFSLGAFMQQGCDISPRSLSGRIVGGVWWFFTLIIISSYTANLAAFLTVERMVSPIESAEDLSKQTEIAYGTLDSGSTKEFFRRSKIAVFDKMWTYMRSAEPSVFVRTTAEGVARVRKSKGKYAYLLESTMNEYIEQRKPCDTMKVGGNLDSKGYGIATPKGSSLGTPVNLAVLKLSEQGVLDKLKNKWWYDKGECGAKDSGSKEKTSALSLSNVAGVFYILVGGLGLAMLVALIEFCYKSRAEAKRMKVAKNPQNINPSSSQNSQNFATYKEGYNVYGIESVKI
T3 sequence (P42264 32-919): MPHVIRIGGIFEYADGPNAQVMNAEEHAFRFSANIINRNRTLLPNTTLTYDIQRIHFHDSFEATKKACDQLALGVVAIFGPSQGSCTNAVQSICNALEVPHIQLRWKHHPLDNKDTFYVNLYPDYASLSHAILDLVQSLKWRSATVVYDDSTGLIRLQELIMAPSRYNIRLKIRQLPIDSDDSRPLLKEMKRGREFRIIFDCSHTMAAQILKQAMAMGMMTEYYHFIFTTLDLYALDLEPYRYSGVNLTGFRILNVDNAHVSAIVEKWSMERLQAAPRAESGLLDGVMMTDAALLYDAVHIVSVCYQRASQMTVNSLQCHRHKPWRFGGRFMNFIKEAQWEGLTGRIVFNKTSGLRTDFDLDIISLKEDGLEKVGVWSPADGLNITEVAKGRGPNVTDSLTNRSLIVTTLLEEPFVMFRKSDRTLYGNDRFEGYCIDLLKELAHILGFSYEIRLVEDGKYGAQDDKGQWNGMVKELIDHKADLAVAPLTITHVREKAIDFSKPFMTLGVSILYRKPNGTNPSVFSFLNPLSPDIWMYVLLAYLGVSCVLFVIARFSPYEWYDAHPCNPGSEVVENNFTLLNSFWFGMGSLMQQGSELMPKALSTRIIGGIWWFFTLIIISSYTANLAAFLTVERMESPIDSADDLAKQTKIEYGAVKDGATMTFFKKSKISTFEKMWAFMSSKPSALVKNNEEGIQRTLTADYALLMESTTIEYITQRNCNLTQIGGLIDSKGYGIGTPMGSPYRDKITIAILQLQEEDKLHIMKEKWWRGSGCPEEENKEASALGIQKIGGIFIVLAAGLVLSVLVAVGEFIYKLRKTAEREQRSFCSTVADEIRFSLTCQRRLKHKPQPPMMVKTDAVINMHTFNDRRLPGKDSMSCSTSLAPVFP
T5 sequence (P19490 19-907 isoform P19490-2 limits assumed): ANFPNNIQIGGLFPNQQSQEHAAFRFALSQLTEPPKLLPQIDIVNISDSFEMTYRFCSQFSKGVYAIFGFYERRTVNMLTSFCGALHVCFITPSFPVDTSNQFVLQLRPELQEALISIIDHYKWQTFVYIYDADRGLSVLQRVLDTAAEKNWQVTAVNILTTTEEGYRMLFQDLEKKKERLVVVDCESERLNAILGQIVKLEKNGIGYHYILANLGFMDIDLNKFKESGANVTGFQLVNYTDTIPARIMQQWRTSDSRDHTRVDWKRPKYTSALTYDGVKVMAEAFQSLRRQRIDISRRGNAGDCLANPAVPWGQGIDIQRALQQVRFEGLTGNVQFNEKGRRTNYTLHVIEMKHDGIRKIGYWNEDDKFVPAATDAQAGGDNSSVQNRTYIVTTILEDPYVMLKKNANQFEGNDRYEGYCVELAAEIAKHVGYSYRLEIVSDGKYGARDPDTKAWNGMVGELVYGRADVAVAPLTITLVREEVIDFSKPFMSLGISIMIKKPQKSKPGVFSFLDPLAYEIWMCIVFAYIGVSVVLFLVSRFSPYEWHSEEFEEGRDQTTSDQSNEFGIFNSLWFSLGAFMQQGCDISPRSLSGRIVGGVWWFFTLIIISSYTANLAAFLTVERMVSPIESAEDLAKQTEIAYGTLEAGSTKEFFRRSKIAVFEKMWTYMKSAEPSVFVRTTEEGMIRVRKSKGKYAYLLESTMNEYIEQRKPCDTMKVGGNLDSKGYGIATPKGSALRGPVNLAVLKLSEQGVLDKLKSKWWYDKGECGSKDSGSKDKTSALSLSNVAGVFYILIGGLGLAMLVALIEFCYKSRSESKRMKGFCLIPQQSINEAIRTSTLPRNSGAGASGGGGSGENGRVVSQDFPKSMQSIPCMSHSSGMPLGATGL
T1 sequence (P42260 32-908): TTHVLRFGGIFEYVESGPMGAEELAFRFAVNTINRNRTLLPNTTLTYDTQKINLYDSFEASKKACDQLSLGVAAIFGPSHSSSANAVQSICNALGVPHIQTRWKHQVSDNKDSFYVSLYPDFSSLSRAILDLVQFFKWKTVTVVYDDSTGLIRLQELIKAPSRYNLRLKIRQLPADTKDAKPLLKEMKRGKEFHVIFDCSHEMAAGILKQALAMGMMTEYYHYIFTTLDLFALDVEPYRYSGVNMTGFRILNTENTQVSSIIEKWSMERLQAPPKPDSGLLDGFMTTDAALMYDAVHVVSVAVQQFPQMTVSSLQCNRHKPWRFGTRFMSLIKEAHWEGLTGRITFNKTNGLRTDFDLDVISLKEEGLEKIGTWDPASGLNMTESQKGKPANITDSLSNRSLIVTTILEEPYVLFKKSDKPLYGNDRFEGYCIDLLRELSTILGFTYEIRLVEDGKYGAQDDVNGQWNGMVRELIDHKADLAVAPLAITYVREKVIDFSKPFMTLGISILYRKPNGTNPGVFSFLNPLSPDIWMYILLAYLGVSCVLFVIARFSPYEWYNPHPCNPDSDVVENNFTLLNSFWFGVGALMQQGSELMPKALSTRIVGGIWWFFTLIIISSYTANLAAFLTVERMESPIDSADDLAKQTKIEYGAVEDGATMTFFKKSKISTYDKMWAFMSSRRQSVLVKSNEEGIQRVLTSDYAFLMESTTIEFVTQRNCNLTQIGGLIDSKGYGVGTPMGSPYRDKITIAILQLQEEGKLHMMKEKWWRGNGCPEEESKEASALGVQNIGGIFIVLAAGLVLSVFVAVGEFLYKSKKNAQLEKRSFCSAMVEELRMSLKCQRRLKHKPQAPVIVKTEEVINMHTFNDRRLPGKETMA
T2 sequence (P22756 with tags, fused parts or gaps isoform P22756-2 limits assumed, stated change not applied): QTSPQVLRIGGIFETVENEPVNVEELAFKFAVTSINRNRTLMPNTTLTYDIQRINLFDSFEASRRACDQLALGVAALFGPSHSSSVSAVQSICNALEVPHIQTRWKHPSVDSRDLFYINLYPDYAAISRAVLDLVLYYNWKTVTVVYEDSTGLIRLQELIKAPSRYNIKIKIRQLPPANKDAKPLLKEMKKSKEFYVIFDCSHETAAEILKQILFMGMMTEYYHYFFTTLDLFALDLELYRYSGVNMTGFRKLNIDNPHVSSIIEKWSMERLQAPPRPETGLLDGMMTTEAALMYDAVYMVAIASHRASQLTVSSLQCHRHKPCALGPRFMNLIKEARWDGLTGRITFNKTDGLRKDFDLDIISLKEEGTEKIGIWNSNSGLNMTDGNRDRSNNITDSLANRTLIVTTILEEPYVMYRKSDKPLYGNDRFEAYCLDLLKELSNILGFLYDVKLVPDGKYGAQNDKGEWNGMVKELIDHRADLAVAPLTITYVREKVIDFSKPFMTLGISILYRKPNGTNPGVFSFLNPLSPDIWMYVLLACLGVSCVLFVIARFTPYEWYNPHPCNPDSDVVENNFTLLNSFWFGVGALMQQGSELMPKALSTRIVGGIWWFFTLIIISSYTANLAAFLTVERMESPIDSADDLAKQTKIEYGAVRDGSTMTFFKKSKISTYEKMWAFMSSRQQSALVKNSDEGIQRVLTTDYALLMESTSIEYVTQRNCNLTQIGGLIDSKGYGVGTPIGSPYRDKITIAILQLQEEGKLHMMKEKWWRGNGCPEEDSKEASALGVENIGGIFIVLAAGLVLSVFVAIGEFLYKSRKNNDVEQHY

| SMILES | binding affinity for GluR6a subunit (GluR6a) | ED50 seizure activity (mice) | convulsant behavior, from the literature (mice) | Ki (GluR5-2a; read-out: Ki GluR5-2a) | Ki (GluR6a; read-out: Ki GluR6a) | Ki (GluR7a; [1]) | Ki (KA2; [2]) | Ki (GluR1(i); read-out: Ki GluR1(i)) | Ki (GluR2(i); read-out: Ki GluR2(i)) | binding to GluR7 receptor (GluR7a) | ED50 seizure activity (mice; listed as 2,4epi-neoDH) | Ki (GluR5-2a; Ki GluR5-2a) | Ki (GluR6a; Ki GluR6a) | Ki (GluR7a) | Ki (KA2; Ki KA2, [3H]kainate displacement) | Ki (GluR1(i); Ki GluR1(i)) | Ki (GluR2(i); Ki GluR2(i)) |
| --- | --- | --- | --- | --- | --- | --- | --- | --- | --- | --- | --- | --- | --- | --- | --- | --- | --- |
| N[C@@H](C[C@]1(C(=O)O)C[C@H]2OCCC[C@H]2O1)C(=O)O [MSVIII-19, 8,9-dideoxy-neoDH] | do not exhibit measurable affinity | 6.3 nmol/mouse | sub-seizure stereotyped behavior followed by unresponsiveness |  |  |  |  |  |  |  |  |  |  |  |  |  |  |
| NC(CC1(C(=O)O)CC2OCC(O)C(O)C2O1)C(=O)O (stereo not drawn) [8-epi-neoDH, 8-epi-neodysiherbaine] |  | 283 pmol/mouse |  | 0.034 µM | 22 µM | 1.7 µM | >100 µM | 16 µM | 23 µM |  |  |  |  |  |  |  |  |
| N[C@@H](C[C@]1(C(=O)O)C[C@H]2OCC[C@@H](O)[C@H]2O1)C(=O)O [9-deoxy-neoDH] | do not exhibit measurable affinity | 7.1 nmol/mouse |  | 0.169 µM | > 100 µM | > 100 µM | > 100 µM | > 100 µM | > 100 µM |  |  |  |  |  |  |  |  |
| N[C@@H](C[C@@]1(C(=O)O)CC2OCC(O)C(O)C2O1)C(=O)O (single isomer, unassigned) [4-epi-neoDH, 4-epi-neodysiherbaine] |  | 1.7 nmol/mouse | weakly convulsant | 0.559 µM and ~0.56 µM | 6.7 µM | > 100 µM | ~30 µM | > 30 µM | > 30 µM | Neither 2,4-epineoDH nor 4-epi-neoDH bound the GluR7 receptor appreciably |  |  |  |  |  |  |  |
| NC(CC1(C(=O)O)CC2OCC(O)C(O)C2O1)C(=O)O (stereo not drawn) [9-epi-neoDH, 9-epi-neodysiherbaine] | do not exhibit measurable affinity | 8.6 nmol/mouse |  | 0.292 µM | > 100 µM | > 100 µM | >100 µM | > 100 µM | > 100 µM |  |  |  |  |  |  |  |  |
| NC(CC1(C(=O)O)CC2OCC(O)C(O)C2O1)C(=O)O (stereo not drawn) [8,9-epi-neoDH, 8,9-epi-neodysiherbaine] |  |  |  | 48 µM | > 100 µM | > 100 µM | >100 µM | > 100 µM | > 100 µM |  |  |  |  |  |  |  |  |
| N[C@@H](C[C@@]1(C(=O)O)CC2OCC(O)C(O)C2O1)C(=O)O (single isomer, unassigned) [2,4-epi-neoDH, 2,4-epi-neodysiherbaine] |  | 11.4 nmol/mouse | weakly convulsant | 2.4 µM | 7.7 µM | > 100 µM | > 100 µM | > 100 µM | > 100 µM | Neither 2,4-epineoDH nor 4-epi-neoDH bound the GluR7 receptor appreciably | 11.4 nmol/mouse |  |  |  |  |  |  |
| N[C@@H](C[C@]1(C(=O)O)C[C@H]2OC[C@@H](O)C[C@H]2O1)C(=O)O [8-deoxy-neoDH] |  | 238 pmol/mouse |  |  |  |  |  |  |  |  |  | 0.0015 µM | 48 µM | 2.9 µM | 20 µM | > 100 µM | > 100 µM |
| NC(CC1(C(=O)O)CC2OCC(F)C(O)C2O1)C(=O)O (stereo not drawn) [9-F-8-epi-neoDH] | do not exhibit measurable affinity | 374 pmol/mouse |  | 0.028 µM | > 100 µM | > 100 µM | >100 µM | > 100 µM | > 100 µM |  |  |  |  |  |  |  |  |
